Measurements reported in PubChem BioAssay AID2060886 (Molecular Pharmacology Branch, DTP, NCI, 2025).

Tested on: 653999-131-R-J2-PDC complex spheroids, growth inhibition
Assay: Anticancer human tumor 653999-131-R-J2-PDC patient-derived lung adenocarcinoma cell line growth inhibition [RAS]
Details: for IC50: curve of first compound; for viability, T/C: stronger effect = lower value; active = viability on the fitted dose curve at most 10% of control; inactive = the rest
Source text: RAS pathway inhibitors in Combinations in Complex Spheroids
A high-throughput screen of multi-cell type tumor spheroids was designed to identify active combinations of RAS pathway inhibitors and targeted small molecules. Complex spheroids include a stromal component modeled by human endothelial cells (HUVEC) and fibroblasts modeled by human mesenchymal stem cells (MSCs). The concentration ranges selected for each drug and investigational agent were based upon clinically achievable concentrations if the clinical Cmax of the agent was known.
Compounds. The drugs and investigational agents: abemaciclib (NSC768073), cobimetinib (NSC768068), divarasib (GDC6063, NSC841802), docetaxel (NSC628503), GDC-1971 (RLY-1971, NSC841576), gemcitabine (NSC613327), inavolisib (NSC800729), ipatasertib (NSC767898), KB-0742 (NSC834161), MRTX-1133 (NSC836407), osimertinib (NSC779217), RMC-4630 (NSC839698), RMC-6236 (NSC851965), RMC-6291 (NSC852671), Ro-3306 (NSC812927), sapanisertib (NSC764658), SN-38 (NSC673596), staurosporine (NSC755774), SY5609 (NSC837396), and tovorafenib (DAY101, NSC766906), were obtained from the National Cancer Institute (NCI) Developmental Therapeutics Program Chemical Repository. The FDA-approved anticancer drug set is available from the NCI Developmental Therapeutics Program. […] The stock solutions were prepared in dimethyl sulfoxide (DMSO, Sigma-Aldrich, St. Louis, MO, cat. D2650) at 800-fold the tested concentration and stored at -70 degrees C prior to their use. All drugs and investigational agents were tested over a range starting from a high concentration at or near the clinical Cmax and decreasing in half-log increments. If the clinical Cmax for an agent had not been determined, the highest concentration tested was 10 microM.
Cell Culture. All cells were maintained in an incubator at 37 degrees C and 5% CO2 with 95% humidity. The PDC lines were cultured according to standard operating procedures established by the NCI PDMR. All PDCs were thawed and cultured in Matrigel-coated flasks prepared with a working solution of 1X Ham's F-12 nutrient mix, without supplementation (Invitrogen, Waltham, MA, cat. 11765054), 100 U/mL penicillin-streptomycin (Invitrogen, cat. 15140122), and 2.5% Matrigel (Corning Inc., Corning, NY, cat. 354248) for the first three passages. The 362531-283-R-J2-PDC and 782815-120-R-J1-PDC lines were cultured in 6C/Colon 1B media, which includes advanced DMEM/F-12 (Thermo Fisher Scientific, cat. 12634028), 10 mM HEPES (Thermo Fisher Scientific, cat. 15630080), 1X GlutaMAX supplement (Thermo Fisher Scientific, cat. 35050061), 0.1 mg/mL primocin (InvivoGen, San Diego, CA, cat. ant-pm-2), 10% defined fetal bovine serum, heat inactivated (HyClone Laboratories Inc., Logan, UT, cat. SH30070.03HI), 50% L-WRN conditioned media (ATCC, cat. CRL-3276), 1.25 mM N-Acetyl-L-cysteine (Sigma-Aldrich, cat. A9165), 10 mM nicotinamide (Sigma-Aldrich, cat. N0636), 1X B-27 supplement (Thermo Fisher Scientific, cat. 17504044), 1X N-2 supplement (Thermo Fisher Scientific, cat. 17502048), 50 ng/mL human EGF (Thermo Fisher Scientific, cat. PHG0311), and 10 microM Y-27632 dihydrochloride (Tocris Bioscience, cat. 1254). The K12877-001-R-J1-PDC line was cultured in 6I media, which includes all 6C/Colon 1B media plus 10 ng/mL human FGF-10 (PeproTech, cat. 100-26), 1 ng/mL human FGF-2 (PeproTech, cat. 100-18B), 1 µM prostaglandin E2 (Tocris Bioscience, cat. 2296), […] hydrocortisone (Sigma-Aldrich, cat. H4001), and […] bovine insulin (Sigma-Aldrich, cat. I6634). The K86415-001-R-J1-PDC line was cultured in 6D media, which includes all 6C/Colon 1B media components minus the L-WRN conditioned media. The 485176-168-R4-J1-PDC was cultured in PANC media, which includes all 6C/Colon 1B media plus 100 ng/mL human FGF-10 (PeproTech, cat. 100-26), 500 nM SB-431542 (Selleckchem, cat. S1067), and 10 nM gastrin (Tocris Bioscience, cat. 3006). […]

[1] = second compound 0.0316 µM, first compound 0.0316 µM
[2] = second compound 0.0316 µM, first compound 0.1 µM
[3] = second compound 0.0316 µM, first compound 0.316 µM
[4] = second compound 0.0316 µM, first compound 1 µM
[5] = second compound 0.0316 µM, first compound 3.16 µM
[6] = second compound 0.0316 µM, first compound 10 µM
[7] = second compound 0.1 µM, first compound 0.0316 µM
[8] = second compound 0.1 µM, first compound 0.1 µM
[9] = second compound 0.1 µM, first compound 0.316 µM
[10] = second compound 0.1 µM, first compound 1 µM
[11] = second compound 0.1 µM, first compound 3.16 µM
[12] = second compound 0.1 µM, first compound 10 µM
[13] = second compound 0.316 µM, first compound 0.0316 µM
[14] = second compound 0.316 µM, first compound 0.1 µM
[15] = second compound 0.316 µM, first compound 0.316 µM
[16] = second compound 0.316 µM, first compound 1 µM
[17] = second compound 0.316 µM, first compound 3.16 µM
[18] = second compound 0.316 µM, first compound 10 µM
[19] = second compound 1 µM, first compound 0.0316 µM
[20] = second compound 1 µM, first compound 0.1 µM
[21] = second compound 1 µM, first compound 0.316 µM
[22] = second compound 1 µM, first compound 1 µM
[23] = second compound 1 µM, first compound 3.16 µM
[24] = second compound 1 µM, first compound 10 µM
[25] = second compound 3.16 µM, first compound 0.0316 µM
[26] = second compound 3.16 µM, first compound 0.1 µM
[27] = second compound 3.16 µM, first compound 0.316 µM
[28] = second compound 3.16 µM, first compound 1 µM
[29] = second compound 3.16 µM, first compound 3.16 µM
[30] = second compound 3.16 µM, first compound 10 µM
[31] = second compound 10 µM, first compound 0.0316 µM
[32] = second compound 10 µM, first compound 0.1 µM
[33] = second compound 10 µM, first compound 0.316 µM
[34] = second compound 10 µM, first compound 1 µM
[35] = second compound 10 µM, first compound 3.16 µM
[36] = second compound 10 µM, first compound 10 µM
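Note: spheroids exposed to the agents for seven days before the readout.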

CC(C)NCC(C(=O)N1CCN(c2ncnc3c2C(C)CC3O)CC1)c1ccc(Cl)cc1 (stereo unspecified) + C#Cc1c(F)ccc2cc(O)cc(-c3ncc4c(N5CC6CCC(C5)N6)nc(OCC56CCCN5CC(F)C6)nc4c3F)c12
84.5 nM: IC50 (second compound 1 µM)
< 31.6 nM: IC50 (second compound 3.16 µM) | IC50 (second compound 10 µM)
1220 nM: IC50 (second compound 0.0316 µM)
inactive: viability, T/C [1] 109% | viability, T/C [2] 84.2% | viability, T/C [3] 72% | viability, T/C [4] 53.6% | viability, T/C [5] 35% | viability, T/C [6] 28.9% | viability, T/C [7] 97.6% | viability, T/C [8] 55.7% | viability, T/C [9] 70.4% | viability, T/C [10] 43.6% | viability, T/C [11] 37.6% | viability, T/C [12] 32.1% | viability, T/C [13] 56.5% | viability, T/C [14] 62.6% | viability, T/C [15] 38.8% | viability, T/C [16] 38.9% | viability, T/C [17] 26.2% | viability, T/C [18] 20.5% | viability, T/C [19] 64.7% | viability, T/C [20] 40.8% | viability, T/C [21] 45% | viability, T/C [22] 21% | viability, T/C [23] 19.4% | viability, T/C [24] 14% | viability, T/C [25] 36.9% | viability, T/C [26] 43.9% | viability, T/C [27] 27.9% | viability, T/C [28] 19% | viability, T/C [29] 12.7% | viability, T/C [31] 23.3% | viability, T/C [32] 23.3% | viability, T/C [33] 22.8% | viability, T/C [34] 14.1% | viability, T/C [35] 9.37%
190 nM: IC50 (second compound 0.316 µM)
593 nM: IC50 (second compound 0.1 µM)
active: viability, T/C [30] 9.87% | viability, T/C [36] 5.49%

CC(Nc1ccc2c(c1)OCCn1cc(N3C(=O)OCC3C(F)F)nc1-2)C(N)=O (stereo unspecified) + C#Cc1c(F)ccc2cc(O)cc(-c3ncc4c(N5CC6CCC(C5)N6)nc(OCC56CCCN5CC(F)C6)nc4c3F)c12
< 31.6 nM: IC50 (second compound 1 µM) | IC50 (second compound 3.16 µM) | IC50 (second compound 10 µM)
273 nM: IC50 (second compound 0.1 µM)
558 nM: IC50 (second compound 0.0316 µM)
117 nM: IC50 (second compound 0.316 µM)
inactive: viability, T/C [1] 86.3% | viability, T/C [2] 70.3% | viability, T/C [3] 53.8% | viability, T/C [4] 44.4% | viability, T/C [5] 35.1% | viability, T/C [6] 22.3% | viability, T/C [7] 77.2% | viability, T/C [8] 66.9% | viability, T/C [9] 47% | viability, T/C [10] 32.3% | viability, T/C [11] 26.1% | viability, T/C [12] 22.6% | viability, T/C [13] 63.6% | viability, T/C [14] 51.2% | viability, T/C [15] 39.5% | viability, T/C [16] 25.5% | viability, T/C [17] 18.9% | viability, T/C [18] 13.5% | viability, T/C [19] 39.9% | viability, T/C [20] 35.1% | viability, T/C [21] 28.1% | viability, T/C [22] 23% | viability, T/C [23] 19% | viability, T/C [24] 11% | viability, T/C [25] 30.1% | viability, T/C [26] 28.4% | viability, T/C [27] 22.9% | viability, T/C [28] 11.8% | viability, T/C [29] 13.9% | viability, T/C [31] 17.1% | viability, T/C [32] 14.3% | viability, T/C [33] 10.6%
active: viability, T/C [30] 7.23% | viability, T/C [34] 8.07% | viability, T/C [35] 5.81% | viability, T/C [36] 4.16%

O=C(c1ccc(F)c(F)c1Nc1ccc(I)cc1F)N1CC(O)([C@@H]2CCCCN2)C1 + C#Cc1c(F)ccc2cc(O)cc(-c3ncc4c(N5CC6CCC(C5)N6)nc(OCC56CCCN5CC(F)C6)nc4c3F)c12
92.7 nM: IC50 (second compound 0.0316 µM)
inactive: viability, T/C (second compound 0.0316 µM, first compound 0.00316 µM) 88.1% | viability, T/C (second compound 0.0316 µM, first compound 0.01 µM) 90.7% | viability, T/C [1] 60.7% | viability, T/C [2] 52.7% | viability, T/C [3] 25.6% | viability, T/C (second compound 0.1 µM, first compound 0.00316 µM) 70.9% | viability, T/C (second compound 0.1 µM, first compound 0.01 µM) 70.6% | viability, T/C [7] 63% | viability, T/C [8] 34.6% | viability, T/C [9] 24% | viability, T/C [10] 8.72% | viability, T/C (second compound 0.316 µM, first compound 0.00316 µM) 62.3% | viability, T/C (second compound 0.316 µM, first compound 0.01 µM) 60.1% | viability, T/C [13] 66.6% | viability, T/C [14] 49.9% | viability, T/C [15] 23.8% | viability, T/C (second compound 1 µM, first compound 0.00316 µM) 50.1% | viability, T/C (second compound 1 µM, first compound 0.01 µM) 39.8% | viability, T/C [19] 51.2% | viability, T/C [20] 43.4% | viability, T/C [21] 19.1% | viability, T/C (second compound 3.16 µM, first compound 0.00316 µM) 34.5% | viability, T/C (second compound 3.16 µM, first compound 0.01 µM) 31.5% | viability, T/C [25] 31.6% | viability, T/C [26] 21.4% | viability, T/C [27] 12.8% | viability, T/C (second compound 10 µM, first compound 0.00316 µM) 26% | viability, T/C (second compound 10 µM, first compound 0.01 µM) 22.1% | viability, T/C [31] 11.9% | viability, T/C [32] 11.9%
< 3.16 nM: IC50 (second compound 1 µM) | IC50 (second compound 3.16 µM) | IC50 (second compound 10 µM)
active: viability, T/C [4] 7.56% | viability, T/C [16] 8.41% | viability, T/C [22] 6.71% | viability, T/C [28] 5.39% | viability, T/C [33] 8.98% | viability, T/C [34] 2.85%
106 nM: IC50 (second compound 0.316 µM)
54.7 nM: IC50 (second compound 0.1 µM)
